In ChEMBL document CHEMBL1201862, “PubChem BioAssay data set” (2004):
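A five-concentration, 48-hour dose response in 96-well plates underlies each endpoint, interpolated linearly between surrounding concentrations. GI50: concentration for 50% inhibition of growth.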 Calls of active or inactive are those of the source. Rule as the data show it: active = GI50 up to about 1.1 µM and inactive = higher.

Key:
Test in all cases: inhibition of tumour cell growth, NCI panel, 48 h
OVCAR-3 = system: OVCAR-3
SK-OV-3 = system: SK-OV-3
SW-620 = system: SW-620
IGROV-1 = system: IGROV-1
HCT-15 = system: HCT-15
A549 = system: A549
SN12C = system: SN12C
MOLT-4 = system: MOLT-4
M14 = system: M14
SNB-75 = system: SNB-75
SNB-19 = system: SNB-19
SK-MEL-5 = system: SK-MEL-5
UACC-62 = system: UACC-62
OVCAR-4 = system: OVCAR-4
HOP-62 = system: HOP-62
NCI-H226 = system: NCI-H226
SK-MEL-2 = system: SK-MEL-2
HL-60 = system: HL-60

| SMILES | GI50 (OVCAR-3) | GI50 (SK-OV-3) | GI50 (SW-620) | GI50 (IGROV-1) | GI50 (HCT-15) | GI50 (A549) | GI50 (SN12C) | GI50 (MOLT-4) | GI50 (M14) | GI50 (SNB-75) | GI50 (SNB-19) | GI50 (SK-MEL-5) | GI50 (UACC-62) | GI50 (OVCAR-4) | GI50 (HOP-62) | GI50 (NCI-H226) | GI50 (SK-MEL-2) | GI50 (HL-60) |
| --- | --- | --- | --- | --- | --- | --- | --- | --- | --- | --- | --- | --- | --- | --- | --- | --- | --- | --- |
| O=C(O)[C@@H](NS(=O)(=O)c1ccc(F)cc1)c1ccccc1 | > 100 µM (inactive) | > 100 µM (inactive) | > 100 µM (inactive) | > 100 µM (inactive) | > 100 µM | > 100 µM (inactive) | > 100 µM (inactive) | > 100 µM (inactive) | > 100 µM (inactive) | > 100 µM (inactive) | > 100 µM (inactive) | > 100 µM (inactive) | > 100 µM (inactive) | > 100 µM (inactive) | > 100 µM (inactive) | > 100 µM (inactive) | > 100 µM (inactive) | – |
| C=CCc1cc(OC)c2c(c1)C(OC(C)=O)CC(c1ccc(OC)c(OC)c1)O2 (stereo not drawn) | > 100 µM (inactive) | > 100 µM (inactive) | > 100 µM (inactive) | > 100 µM (inactive) | > 100 µM | > 100 µM (inactive) | > 100 µM (inactive) | > 100 µM (inactive) | > 100 µM (inactive) | 17.1 µM (inactive) | 49.4 µM (inactive) | > 100 µM (inactive) | > 100 µM (inactive) | > 100 µM (inactive) | 45.4 µM (inactive) | > 100 µM (inactive) | – | > 100 µM (inactive) |
| C=C(N=[N+]=[N-])c1cn(C2CC(O)C(CO)O2)c(=O)[nH]c1=O (stereo not drawn) | > 100 µM (inactive) | > 100 µM (inactive) | > 100 µM (inactive) | > 100 µM (inactive) | > 100 µM | > 100 µM (inactive) | > 100 µM (inactive) | > 100 µM (inactive) | > 100 µM (inactive) | > 100 µM (inactive) | > 100 µM (inactive) | > 100 µM (inactive) | > 100 µM (inactive) | – | > 100 µM (inactive) | > 100 µM (inactive) | > 100 µM (inactive) | > 100 µM (inactive) |
| Cc1c(/C=N/N(C)C)oc2c1cc(O)c1ncccc12 | 2.66 µM (inactive) | 6.87 µM (inactive) | 4.61 µM (inactive) | 14.3 µM (inactive) | 2.31 µM | 5.01 µM (inactive) | 3.96 µM (inactive) | 2.59 µM (inactive) | 3.25 µM (inactive) | 6.92 µM (inactive) | 14.1 µM (inactive) | 6.9 µM (inactive) | 13.8 µM (inactive) | 4.75 µM (inactive) | 7.35 µM (inactive) | 13.2 µM (inactive) | 12.6 µM (inactive) | 2.13 µM (inactive) |
| COc1ccc(Cc2c3cc(OC)c(OC)cc3cc[n+]2C)cc1 | 7.28 µM (inactive) | – | > 100 µM (inactive) | 38.7 µM (inactive) | > 31.3 µM | 9.35 µM (inactive) | 4.93 µM (inactive) | > 100 µM (inactive) | > 21.7 µM (inactive) | 9.25 µM (inactive) | 6.81 µM (inactive) | 21.2 µM (inactive) | 18.9 µM (inactive) | 19.8 µM (inactive) | > 20.8 µM (inactive) | 33.1 µM (inactive) | > 29.1 µM (inactive) | 1.21 µM (inactive) |
| Nc1nc(SCc2ccccc2Cl)c2[nH]cnc2n1 | 97.7 µM (inactive) | 24.7 µM (inactive) | > 100 µM (inactive) | 41.8 µM (inactive) | 51.5 µM | 73.1 µM (inactive) | 72.3 µM (inactive) | 34.6 µM (inactive) | > 100 µM (inactive) | – | 70.1 µM (inactive) | 48.8 µM (inactive) | 61 µM (inactive) | – | 25.5 µM (inactive) | – | 80.4 µM (inactive) | 36.4 µM (inactive) |
| COC(=O)c1ccccc1NC(=O)C(=O)CC(=O)CC(c1ccccc1)c1c(O)c2ccccc2oc1=O (stereo not drawn) | > 100 µM (inactive) | > 100 µM (inactive) | > 100 µM (inactive) | > 100 µM (inactive) | – | > 100 µM (inactive) | > 100 µM (inactive) | > 100 µM (inactive) | > 100 µM (inactive) | – | > 100 µM (inactive) | > 100 µM (inactive) | > 100 µM (inactive) | > 100 µM (inactive) | > 100 µM (inactive) | – | > 100 µM (inactive) | > 100 µM (inactive) |
| Cc1cccc(C(=O)c2cccc3ccccc23)c1C(=O)O | > 100 µM (inactive) | 39.1 µM (inactive) | > 100 µM (inactive) | > 100 µM (inactive) | > 100 µM | > 100 µM (inactive) | > 100 µM (inactive) | > 100 µM (inactive) | > 100 µM (inactive) | > 100 µM (inactive) | > 100 µM (inactive) | > 100 µM (inactive) | > 100 µM (inactive) | > 100 µM (inactive) | > 100 µM (inactive) | > 100 µM (inactive) | > 100 µM (inactive) | – |
| COc1ccc(/C=C/c2cc(OC)c(OCc3ccccc3)c(OC)c2)cc1 | > 100 µM (inactive) | > 100 µM (inactive) | > 100 µM (inactive) | > 100 µM (inactive) | – | > 100 µM (inactive) | > 100 µM (inactive) | 29 µM (inactive) | 87.5 µM (inactive) | > 100 µM (inactive) | > 100 µM (inactive) | – | 77.1 µM (inactive) | 23.6 µM (inactive) | > 100 µM (inactive) | > 100 µM (inactive) | > 100 µM (inactive) | – |
